Values after ≈ are worked out from the molar mass of the structure shown.
Columns and labels:
[1] = biological target: Chromaffin Granule Membrane V-ATPase; experiment: V-ATPase inhibitory assay, chromaffin granule membrane; format: biochemical; conditions: Chromaffin Granule Membrane V-ATPase (bovine); read-out: V-ATPase (Ki, nM) CGM
Experimental: (§1) The V-ATPase inhibitory assays were performed on representative compound(s) of the present invention using non-mammalian or mammalian (e.g., bovine cromaffin granule) V-ATPases as described by Bowman et al., Proc. Natl. Acad. Sci. USA, 85, 7972-7976, 1988.

[2] = biological target: Neurospora crassa vacuolar membrane V-ATPase; experiment: V-ATPase inhibitory assay, Neurospora crassa vacuolar membrane; format: biochemical; conditions: read-out: V-ATPase (Ki, nM) NCVM
Experimental: as §1

[3] = tested on: leukemia (MOLT-4) human tumor cell line; experiment: 2-day in vitro cytotoxicity assay; format: cell-based; conditions: MOLT-4 leukemia cell line, 2-day in vitro assay
Experimental: (§2) A 2.0 mg solution of chondropsin A in pyridine-d5 was kept at room temperature and ^1H NMR spectra were periodically acquired. […] After 7 days, the pyridine was removed under reduced pressure and the residue was purified by HPLC as described above to give 0.6 mg of a compound that by FABMS, HPLC retention time, ^1H NMR, and HSQC data, was identical to chondropsin D. Thus, chondropsin D can be prepared from chondropsin A via a base-catalyzed transesterification reaction in which the ester migrates from O-34 to O-67. The characterization of chondropsin D was facilitated by spectral analysis of the product of the corresponding base-catalyzed transesterification reaction of the dimethyl ester of chondropsin A (FIG. 1A, compound (3)), which produced the dimethyl ester of chondropsin D (FIG. 1A, compound (9)). Chondropsin D was evaluated for cytotoxic activity towards melanoma (LOX) and leukemia (MOLT-4) human tumor cell lines in a 2-day in vitro assay, the procedure for which is described in Bokesch et al., J. Nat. Prod., 62, 633-635 (1999).

[4] = tested on: melanoma (LOX) human tumor cell line; experiment: 2-day in vitro cytotoxicity assay; format: cell-based; conditions: 2-day in vitro assay
Experimental: as §2

With `CO/C1=C\C(C)=C\[C@@H](C)[C@@H](O)[C@@H](C)C/C(C)=C/C=C/[C@H](OC)[C@@H]([C@@H](C)[C@@H](O)[C@H](C)[C@@]2(O)C[C@@H](O)[C@H](C)[C@@H](C(C)C)O2)OC1=O` [Bafilomycin A1, bafilomycin A1, reference compound] the Ki [1] was 6 nM and the Ki [2] was 13 nM.

In the case of `COC(=O)C(C)(C)C(O)C(C)C(=O)C(C)(C)C=CC(=O)NC(CC(C)C)C(O)C(C)C=C(C)C(O)C(C)CCC(O)C(C)C(=O)NC(C(C)O)C1OC(=O)C(C(O)C(=O)O)NC(=O)C=CC=CCCC=CC=CCC2CC(C)CC(CC(O)C(C)C(O)C(C)=CC(C)C(O)C(C)=CCC(OC(=O)CC(O)C(=O)O)C1C)O2` (centres unmarked) [Chondropsin A, 73-deoxy, 73-deoxychondropsin A], the Ki [1] is reported as 3000 nM and the Ki [2] is reported as 100 nM.

`COC(=O)C(C)(C)C(O)C(C)C(=O)C(C)(C)C=CC(=O)NC(C(O)C(C)C)C(O)C(C)C=C(C)C(O)C(C)CCC(O)C(C)C(=O)NC(C(C)O)C1OC(=O)C(C(O)C(=O)O)NC(=O)C=CC=CCCC=CC=CCC2CC(C)CC(CC(O)C(C)C(O)C(C)=CC(C)C(O)C(C)=CCC(OC(=O)CC(O)C(=O)O)C1C)O2` (centres unmarked) [Chondropsin A, chondropsin A] was tested, and the Ki [1] was greater than 10000 nM and the Ki [2] was 800 nM.

In the case of `COC(=O)C(O)CC(=O)OC1CC=C(C)C(O)C(C)C=C(C)C(O)C(C)C(O)CC2CC(C)CC(CC=CC=CCCC=CC=CC(=O)NC(C(O)C(=O)OC)C(=O)OC(C(NC(=O)C(C)C(O)CCC(C)C(O)C(C)=CC(C)C(O)C(NC(=O)C=CC(C)(C)C(=O)C(C)C(O)C(C)(C)C(=O)OC)C(O)C(C)C)C(C)O)C1C)O2` (centres unmarked) [Chondropsin A, dimethyl ester, chondropsin A dimethyl ester], the Ki [1] is reported as 500 nM and the Ki [2] is reported as 50 nM.

Work on `COC(=O)C(C)(C)C(O)C(C)C(=O)C(C)(C)C=CC(=O)NC(C(O)C(C)C)C(O)C(C)C=C(C)C(O)C(C)CCC(O)C(C)C(=O)NC(C(C)O)C1OC(=O)C(C(O)C(=O)O)NC(=O)C=CC=CCCC=CC=CCC2CC(C)CC(CC(O)C(C)C(O)C(C)=CC(C)C(O)C(C)=CCC(O)C1C)O2` (centres unmarked) [Chondropsin B, chondropsin B] yielded a Ki [1] of 6000 nM and a Ki [2] of 200 nM.

`CC1=CCC(OC(=O)CC(O)C(=O)O)C(C)C(C(NC(=O)C(C)C(O)CCC(C)C(O)C(C)=CC(C)C(O)C(CC(C)C)NC(=O)C=CC(C)(C)C(=O)C(C)C(O)C(C)C)C(C)O)OC(=O)C(C(O)C(=O)O)NC(=O)C=CC=CCCC=CC=CCC2CC(C)CC(CC(O)C(C)C(O)C(C)=CC(C)C1O)O2` (centres unmarked) [Chondropsin C, chondropsin C] showed a Ki [1] of 3000 nM and a Ki [2] of 80 nM.

For `COC(=O)C(C)(C)C(O)C(C)C(=O)C(C)(C)C=CC(=O)NC(C(O)C(C)C)C(O)C(C)C=C(C)C(O)C(C)CCC(O)C(C)C(=O)NC1C(C)OC(=O)C(C(O)C(=O)O)NC(=O)C=CC=CCCC=CC=CCC2CC(C)CC(CC(O)C(C)C(O)C(C)=CC(C)C(O)C(C)=CCC(OC(=O)CC(O)C(=O)O)C(C)C1O)O2` (centres unmarked) [Chondropsin D, chondropsin D], the Ki [1] was greater than 10000 nM, the Ki [2] was 140 nM and the “IC50 (cytotoxic activity)” value [3] was roughly 0.25 mg/L (≈ 0.157 µM). For the same molecule, the “IC50 (cytotoxic activity)” value [4] was “approximately 10 ng/mL”.

Work on `C/C=C/[C@H]1O[C@@](O)([C@@H](C)[C@H](O)[C@H](C)[C@H]2OC(=O)/C(OC)=C/C(C)=C/[C@@H](C)[C@@H](O)[C@@H](CC)[C@@H](O)[C@H](C)C/C(C)=C/C=C/[C@@H]2OC)C[C@@H](O[C@H]2C[C@@H](O)[C@H](OC(N)=O)[C@@H](C)O2)[C@@H]1C` [Concanamycin A, concanamycin A, reference compound] yielded a Ki [1] of 6 nM and a Ki [2] of 4 nM.

`CC/C=C\C=C/C(=O)N/C=C/C[C@H]1C[C@@H](O)[C@@H](C)C/C=C/Cc2cccc(O)c2C(=O)O1` [Salicylihalamide A, salicylihalamide A, reference compound] was tested, and the Ki [1] was 6.5 nM and the Ki [2] was greater than 10000 nM.

From patent publication US8741947B2, “Biologically active macrolides, compositions, and uses thereof” (The United States of America, as represented by the …, priority 2000, dated 2014)
